Tests used:
Type in all cases: in vivo
[1] = tested on: closed-chest dogs; assay: Protocol TE: electrophysiologic properties in closed-chest dogs; details: for result when substituted in the electrophysiologic experiments: dog, in vivo
Method: Experiments were carried out to analyze the electrophysiologic properties of berberine (portocol TE). In this protocol closed-chest dogs were anesthetized with intravenous pentobarbital (30 mg/Kg). Electrode catheters were placed, under fluoroscopy, in the high right atrium, right venticle, and in the aorta near the non-coronary aortic cusp to record His bundle potential. In addition aortic pressure (Statham gauge) and surface ECG were obtained. All parameters were recorded on an Electronic for Medicine polygraph (Model DR 8), with a paper speed of 100 mm/sec. The recordings were obtained before berberine treatment and after five successive five minute infusions of 0.2 mg/Kg/min of berberine in each one of the dogs. At each one of these time intervals recordings were done with the "spontaneous" normal sinus rhythm and with atrial and ventricular extrastimuli were given during the normal sinus as well as during the pacing phases of the experiment to determine the refractory period of the artria, atrio-ventricular node and of the His-Purkinje system and ventricle. Moreover, sinus node recovery time was measured.

[2] = tested on: healthy adult mongrel dogs; assay: Protocol M: hemodynamics in anesthetized open-chest dogs, systolic arterial pressure held constant
Method: The experimental work was carried out as follows: Twelve healthy adult mongrel dogs (20-30 kg) of both sexes were anesthetized with intravenous sodium pentobarbital (25 mg/kg). A left thoractomy was performed through the fifth intercostal space. Catheters were placed to record left atrial, left ventricular and aortic pressures. Descending aortic blood flow was measured with an electromagnetic flowmeter. Heart rate (HR) was calculated using electocardiographic recording, lead aVF. All parameters were recorded on a Gould polygraph. The dogs were randomly assigned either to the control or to the treated group. Six of the dogs were in the control group and these dogs were infused with a placebo, namely the vehicle used for the drug tested. […] Berberine (as the hydrochloride salt) was administered to six anesthesized dogs (barbiturate). The dose was 0.7 mg/kg/min. intravenously infused durng 5 minutes. This dose was repeated after 45 minutes. Systolic arterial pressure was maintained at a constant rate using a reservoir full of blood under constant pressure connected to the femoral artery. Whenever the arterial pressure was not maintained constant in the work reported (and allowed to drop) appropriate reference is made herein to that fact. Systemic arterial pressure was maintained at a constant rate in order to obtain accurate dP/dt since this parameter is of extreme importance in these studies. However, as a consequence, the vascular peripheral resistence, when described as a function of mean aortic pressure, was higher than if the pressure would be allowed to fall with the administration of the compound. Therefore, the reduction calculated total peripheral resistence is underestimated. Also dP/dt is less increased when bradycardia (lower heart rate) occurs and since heart rate was allowed to fall (which is the effect of the drug), the increase in dP/dt reported here is actually underestimated as compared to preparations in which heart rate would have been maintained constant. In Tables I to IX the results of these experiments are presented. The first two lines presents the studied parameter in absolute values, the third line representing the "t" values used in Student's t test for group observation, between the treated and control groups. The fourth line presents the level of significance. The next four lines give the values as changes (Δ) from the value before treatment to the value after treatment. The third set of values represent the changes in percent. The last two sets of two lines represent the paired t-test values and the derived p values obtained by analyzing the data from before the infusion of the drug (last set of two lines) or the placebo (next to last set of two lines), in the subsequent time interval (i.e. after infusion). Therefore, each dog serves as his own control, thus increasing the statistical value of the tests. […] Thus, the calculated peripheral resistance increased by 18% (P <0.02).

[3] = tested on: Mongrel dogs; assay: Protocol Z: continuous 35 minute infusion in anesthetized open-chest dogs, constant left ventricular pressure; details: for reduction of calculated peripheral resistance: 0.2 mg/Kg/min
Method: Mongrel dogs weighing between 15 and 25 kg were anesthetized with intravenous sodium thiamylal (20 mg/kg initially with additional doses given as needed). The dogs were intubated endotracheally, and respiration was maintained by a Harvard respirator. The chest was then opened in the fourth left intercostal space and the heart suspended temporarily in a pericardial cradle.
Aortic pressures were recorded through a polyethylene cannula introduced through the carotid artery (Statham P23 Db pressure transducer) and electrocardiogram (lead aVF) were recorded throughout the experiment on a polygraph (Gould Instruments). Another polyethylene cannula was placed in the left atrium for measurement of atrial pressure (Statham P23 Db pressure transducer). An electromagnetic flowmeter (Biotonix Laboratories) was placed around the ascending aorta and the aortic flow was recorded on a polygraph. Two catheters were inserted into the left ventricle through a femoral artery.
The first ("pigtail") served as a reference, while the second (Millar microtip transducer catheter) was connected through a Millar transducer (Millar Instruments, Houston, Texas) to the polygraph, where both left ventricular pressure curves were recorded simultaneously. The left ventricular end diastolic pressure was recorded separately through a Millar catheter. The first derivative of the left ventricular pressure (dP/dt) was obtained by electronic differentiation of the left ventricular pulse recorded through the Millar catheter.
A reservoir of blood was connected with the femoral artery in order to maintain constant left ventricular pressure during the experiment. In this protocol, similarly to protocol M, systemic arterial pressure was maintained constant in order to have accurate measurements of dP/dt which represent well left ventricular contractility when the systolic pressure is maintained constant. However, calculated total peripheral resistance will be higher (an underestimation of the fall). After stabilization of hemodynamics as reflected by continuously monitored parameters for 15 minutes, the substances to be studied were infused intravenously using a Harvard infusion pump. Registrations were made every 5 minutes at a paper speed of 200 mm/second, while all the parameters were recorded constantly at a speed of 2 mm/second. The dogs were randomly assigned to several groups: • Group a) Control - in these dogs a solution of 5% dextrose in water was infused in the same quantity as in the berberine treated animals (n = 7).
In all berberine, berberrubine coreximine and tetrahydropalmatine groiups the compounds were infused at constant rate for 35 minutes and the data analyzed at 5 minute intervals. • Group b) Berberine 0.7 mg/Kg/min (n = 10). • Group c) Berberine 0.2 mg/Kg/min (n = 7). • Group d) Berberine 0.02 mg/Kg/min (n = 7). • Group e) Berberrubine 0.2 mg/Kg/min (n = 7). • Group f) Tetrahydropalmatine 0.2 mg/Kg/min (n = 4). • Group g) Coreximine 0.2 mg/Kg/min (n = 8).
Therefore, group b, c and d were used to analyze the various effects of continuous infusion of berberine and its dose response and groups e and f and g used to examine the effects of these three other proberberines. Moreover, their effects were compared to the berberine treated dogs with the same dose (i.e. Group c).

[4] = five successive five minute infusions of 0.2 mg/Kg/min
[5] = 0.7 mg/Kg/min, after 35 minutes
[6] = 0.7 mg/Kg/min, over the control

Structure (SMILES): COc1ccc2cc3[n+](cc2c1OC)CCc1cc2c(cc1-3)OCO2 [berberine]
- A-H, H-V and QRS intervals [1, 4]: did not change
- Sinus node recovery [1, 4]: did not change
- artrial refractory period [1, 4]: did not change
- change of QTc [1, 4]: 13%
- decrease of heart rate [1, 4]: 8%
- increase of ventricular effective refractory period [1, 4]: 11%
- diastolic aortic pressure (DAP) ([2]; after treatment, from 84 before): 62 mmHg
- increase in peak blood flow velocity ([2]; descending aorta): ~50%
- arrhythmias during the experimental period ([2]; dog, in vivo): did not develop any type of arrhythmias
- drop of DAP ([2]; dog, in vivo): 20 mmHg
- reduction in HR ([2]; dog, in vivo): 9 beats/min
- difference in dP/dt between the control group and the berberine-treated group ([2]; end of experiment): 50%
- dP/dt maximum of the left ventrical ([2]; end of experiment, 0.7 mg/kg/min i.v. 5 min, repeated after 45 min, control 2009 ± 132): 2974 ± 121 mmHg/s
- increase in the acceleration of blood flow (dF/dt) ([2]; first vs last column of Table III): ~65%
- mean left artrial pressure (LAP) ([2]; initial 1 or 2 mmHg): no change
- left ventricular end diastolic pressure (LVEDP) ([2]; normal, averaging 3 mmHg): no change
- increase of dF/dt ([2]; summary statement): at least 50%
- increase of dP/dt ([2]; summary statement): at least 50%
- increase in dP/dt ([3]; 0.002 mg/Kg/min, one additional dog): 20%
- increase of pulse pressure ([3]; 0.02 mg/Kg/min (group d)): 18.5 ± 10%
- increase in dP/dt ([3]; 0.02 mg/Kg/min, after 35 minutes): 35.8 ± 8.2%
- reduction of calculated peripheral resistance [3]: over 30%
- Stroke volume (SV) ([3]; 0.2 mg/Kg/min (Table XIII)): increased significantly
- fall in diastolic arterial pressure (widening in the pulse-pressure, PP) relative to the other three drugs ([3]; 0.2 mg/Kg/min (Table XIII)): more than twice as large
- fall of heart rate (HR) ([3]; 0.2 mg/Kg/min (Table XIII)): 16-17%
- increase of aortic flow (stroke volume) ([3]; 0.2 mg/Kg/min (group c)): 53.6 ± 17.7%
- reduction of heart rate ([3]; 0.7 mg/Kg/min): 32 ± 3%
- increase in LV dP/dt ([3]; 0.7 mg/Kg/min, after 5 minutes): 35%
- decrease of calculated total peripheral resistance [3, 5]: 46.8 ± 9.3%
- increase of aortic pulse-pressure [3, 5]: 125 ± 19%
- increase of peak aortic blood flow ([3]; 0.7 mg/Kg/min, after 35 minutes, ascending aorta): 73%
- increase in LV dP/dt ([3]; 0.7 mg/Kg/min, at 35 minutes): 43.2 ± 7.0%
- increase in cardiac output [3, 6]: 75 ± 29%
- increase in stroke volume (calculated by planimetry) [3, 6]: 169 ± 36%
- fall in heart rate ([3]; at the smaller doses): no significant fall in heart rate
- QTc interval ([3]; dog, in vivo): overall increase
- P-R interval ([3]; i.v. for 60' (0.7 mg/Kg/min), total 42 mg/Kg): does not increase the P-R interval
- QRS complex or interval ([3]; over the period of i.v. administration (Fig. XVII)): not increased
- average increase of QTc ([3]; when dP/dt is increased by 43%): 16%

Structure (SMILES): COc1ccc2cc3[n+](cc2c1O)CCc1cc2c(cc1-3)OCO2 [berberrubine]
- result when substituted in the electrophysiologic experiments [1]: likewise
- result of the corresponding Protocol M experiments (dP/dt, peak blood flow, acceleration of flow, heart rate, diastolic pressure) ([2]; dog, in vivo): like results are obtained
- reduction of calculated peripheral resistance [3]: did not show that property to that pronounced degree
- Stroke volume (SV) ([3]; 0.2 mg/Kg/min (Table XIII)): just slightly (and not statistically significantly)
- fall of heart rate (HR) ([3]; 0.2 mg/Kg/min (Table XIII)): 16-17%

Structure (SMILES): COc1cc2c(cc1O)C[C@H]1c3cc(O)c(OC)cc3CCN1C2 [coreximine]
- result when substituted in the electrophysiologic experiments [1]: comparable results are shown
- result of the corresponding Protocol M experiments (dP/dt, peak blood flow, acceleration of flow, heart rate, diastolic pressure) ([2]; dog, in vivo): like results are obtained
- reduction of calculated peripheral resistance [3]: did not show that property to that pronounced degree
- Stroke volume (SV) ([3]; 0.2 mg/Kg/min (Table XIII)): increased significantly
- fall of heart rate (HR) ([3]; 0.2 mg/Kg/min (Table XIII)): 16-17%

Source: patent EP0108147B1, “Use of a protoberberine alkaloid and composition containing same” (MAROKO, Peter R., priority 1982, dated 1983)
